Test results: article PMC3909264, “A Novel Acylaminoimidazole Derivative, WN1316, Alleviates Disease Progression via Suppression of Glial Inflammation in ALS Mouse Model” (PLoS ONE, 2014)

Columns and labels:
[1] = Pharmacokinetics of WN-compounds in mice (brain and serum concentration, HPLC); assay type: in vivo, mouse (C57BL/6N)
Experimental: Wild type mice at 8 weeks (male, C57BL/6N) were used for the analysis of CPN-9, WN1303R, WN1312, WN1315 and WN1316 pharmacokinetics. CPN-9 was suspended in 0.5% carboxymethyl cellulose (CMC)-Na (carmellose sodium, Maruishi Pharmaceutical Co., Ltd.), while WN1303R, WN1312 and WN1316 were dissolved in Milli-Q purified water (MQ water) and WN1315 was dissolved in 0.25 N HCl. CPN-9 (100 mg/kg body weight) and the four WN-compounds (50 mg/kg body weight) were injected intragastrically (i.g.). After 15 min, 30 min, 1 h, 2 h, 4 h, 6 h, and 8 h, blood was collected from heart of each mouse anesthetized with 2% isoflurane by inhalation or 4% halothane in a mixture of N2O/O2 (70∶30). Mice were thereafter perfused transcardially with physiological saline containing 10% heparin under anesthesia, and the whole brain was removed. Each blood sample was centrifuged at 1,000×g for 10 min at 4°C, and the serum fraction was collected. The brain was frozen in liquid nitrogen, and was cryopreserved until use.
We mixed serum with deproteinization buffer (0.05 M H2SO4, 2.5 M K2CO3, and […]), and collected the organic layer after centrifugation at 1,500×g for 10 min. The organic layer was mixed with 0.05 M H2SO4, and then, after centrifugation at 1,500×g for 10 min, the water layer was collected. After the addition of methanol, each serum derived sample was subjected to HPLC.
Mouse whole brain was homogenized with acetonitrile and left at −80°C for 10 min. The supernatant was collected after centrifugation at 10,000×g for 10 min at 4°C and was dried under vacuum. The dried sample was re-dissolved in methanol and mixed with two volumes of 10 mM phosphate buffer (pH7.0), after which the supernatant was collected by centrifugation at 10,000×g for 10 min at 4°C and then left at −80°C for 10 min. To further remove debris, the supernatant was filtered (0.45 µm filter), centrifuged (at 10,000×g for 10 min at 4°C), filtered (0.22 µm filter) and finally centrifuged again. Each sample solution from brain was subjected to HPLC.
The concentrations of CPN-9 and WN1316 in the serum and brain samples were determined by HPLC on a CAPCELL PAK C18 column (SHISEIDO) with 50% acetonitrile (CPN-9), 40% acetonitrile (WN1316) or 45% acetonitrile (WN1303R, WN1312, and WN1315) in 10 mM phosphate buffer (pH 7.0).

[2] = Water solubility (stated property); assay type: physicochemical
[3] = set-up: method as in PMID 23000247; conditions: cited from earlier work
[4] = C57BL/6N mice, intragastric, 100 mg/kg in 0.5% CMC-Na, n = 3, mean ± SD

Q: Which “AUC0–8: Brain” value [1, 4] does the source give for Cc1cc(C)c(OCC(=O)Nc2nc(-c3ccccn3)cs2)c(C)c1 [CPN-9, N-(4-(2-pyridyl)(1,3-thiazol-2-yl))-2-(2,4,6-trimethylphenoxy) acetamide, reference compound] here?
A: Its value is 1.0±1.3 µg⋅h/g.

Q: And the “AUC0–8: Serum” value [1, 4]?
A: The value was 5.9±0.8 µg⋅h/ml.

Q: And the “BBB permeability (in words)” value ([1]; mouse, in vivo)?
A: The value was “very poor blood-brain-barrier (BBB) permeability”.

Q: What about the “water solubility (in words)” value [2] of the same compound?
A: Its value is “hardly water soluble”.

Q: What about the “toxicity (in words)” value [3] of the same compound?
A: Its value is “considerable toxicity”.
